{"source": "patent US8815282B1", "about": "“Commercial method for production of room temperature-liquid cetyl myristoleate” (priority 2005, dated 2014)", "origin": "cited, not measured here", "tested_on": "arthritis in mice", "conditions": "pure CMO, Pharmacological Research 47 (2003) 43-47", "data": [{"smiles": "CCCC/C=C\\CCCCCCCC(=O)OCCCCCCCCCCCCCCCC", "note": "[CMO, cetyl myristoleate]", "values": [{"measurement": "incidence and severity of arthritis", "result": "significant reduction in the incidence and severity of arthritis"}]}]}
